Entries after “also recorded” stand apart in the source; their conditions may differ.
Legend:
Atoh1 [1] = assay: Steady-state abundance of Atoh1 in human 293T cells; type: cell-based
Atoh1-Huwe1 binding = assay: Co-immunoprecipitation of Atoh1-Huwe1 binding and Atoh1 ubiquitylation in HEK cells; type: cell-based; conditions: HEK cells co-transfected with HA-ubiquitin and FLAG-Atoh1, 4 hours treatment, co-IP
Description: HEK cells were co-transfected with HA-ubiquitin and FLAG-Atoh1 plasmids for 48 hours and treated with CK1 inhibitors (PF-670462 or D4476) and/or proteasome inhibitor MG132 (10 μM) for 4 hours. Immunoprecipitation was performed under denaturing conditions with anti-FLAG antibody. Endogenous Huwe1 was detected with an anti-Huwe1 antibody. Atoh1 was detected with anti-FLAG while ubiquitin was detected with anti-HA antibodies.
To explore the effect of CK1 on proteasomal degradation of Atoh1, we performed co-IP experiments.

[2] = test system: Atoh1-specific E-box activity; assay: Dual luciferase reporter assay with Atoh1 E-box associated motif (AtEAM) in HEK cells; type: cell-based; conditions: HEK cells with or without Atoh1 overexpression, overnight, normalized to Renilla luciferase
Description: Dual luciferase assay using a firefly reporter construct with an AtEAM motif in HEK cells. Experiments were done in triplicate, and data are presented as the mean±SEM after normalization to Renilla luciferase
DMSO or CK1 inhibitor D4476 was added to HEK with or without overexpression of Atoh1 for overnight to block the degradation of Atoh1 and therefore downstream Atoh1-specific E-box activity.
To further assess potential roles of CK1 in the control of Atoh1 signaling, we performed dual luciferase reporter assays using a firefly reporter construct with an Atoh1 E-box associated motif (AtEAM) and a Renilla control reporter. AtEAM is a ten […] Atoh1-specific binding motif that represents the site for the activity of Atoh1 in numerous downstream genes (Klisch et al., Proc Natl Acad Sci USA. 2011 February 22; 108(8):3288-93). Inhibition of CK1 by D4476 increased and overexpression of CK1 (specifically CK1δ and/or CK1ε) reduced Atoh1 downstream signaling (FIG. 7A).

Atoh1 [3] = assay: Atoh1 protein in newborn organ of Corti explants (Western blotting, densitometry); type: cell-based, mice; conditions: newborn mouse organ of Corti explants, 10 μM, 72 hours
Description: Effect of CK1 inhibition on Atoh1 upregulation in the organ of Corti. Newborn organs of Corti (P1) were treated with the CK1 inhibitor D4476 (10 uM) for 72 hours. Atoh1 were quantified after Western blotting by densitometry and normalized to a loading control (beta-actin).

organ of Corti explants = assay: Sox2 lineage tracing of supporting cells in organ of Corti explants (hair cell generation); type: cell-based, mice; set-up: double-labeled cells positive for Sox2 lineage and myosin VIIa: dose or concentration left out as unconfirmed
Text: Hair cell co-labeling with the lineage tag indicates derivation from a Sox2-positive cell (labeled with asterisks) and is thus evidence for newly generated hair cells by transdifferentiation of supporting cells. OHCs, at the bottom of the image, are delineated by a light gray bracket while IHCs, at the top of the image, are delineated by a white bracket. The scale bar is 25 μm.
(B, C) Effect of CK1 inhibition was significant.
Since CK1 inhibition stabilized Atoh1, we assessed its effect on hair cell generation in the cochlea. A Sox2-positive Cre-reporter strain crossed with CAG-TdTomato (Bramhall et al., Stem cell reports 2, 311-322 (2014)) was used to label all supporting cells for lineage tracing to follow supporting cells after CK1 inhibition.

[4] = test system: Aminoglycoside-exposed organ of Corti explants; assay: Sox2 lineage tracing in aminoglycoside-exposed organ of Corti explants (hair cell regeneration); type: cell-based
Description: Images of the basal turn of the lineage-traced organ of Corti damaged by gentamycin and treated with CK1 inhibitor D4476 for 72 hours. […] The scale bar is 25 μm.
Aminoglycoside-exposed organ of Corti explants^3 were treated with 10 μM D4476 for 72 hours and lineage traced.

[5] = organ of Corti explants, 10 μM, 72 hours, vs DMSO

Row | SMILES | steady-state abundance of Atoh1 (Atoh1 [1]) | Atoh1-Huwe1 binding (Atoh1-Huwe1 binding) | ubiquitylation of Atoh1 (Atoh1-Huwe1 binding) | Atoh1 downstream signaling (Atoh1-specific E-box activity) [2] | Atoh1 protein in the cochlea based on densitometry (Atoh1 [3]) | double-labeled cells positive for Sox2 lineage and myosin VIIa (organ of Corti explants; mid-base region of neonatal mouse cochlear tissue, 3 days after treatment) | number of reporter-labeled inner hair cells (IHCs) (organ of Corti explants; [5]) | number of reporter-labeled outer hair cells (OHCs) (organ of Corti explants; [5]) | hair cell generation in the organ of Corti (organ of Corti explants; summary statement) | Sox2-lineage-tagged hair cells (co-labeled with myosin VIIa and TdTomato) after aminoglycoside damage ([4]; gentamycin-damaged explants, 10 μM, 72 hours) | hair cell regeneration after aminoglycoside damage ([4]; summary statement)
1 | COc1cc(OC)c(C=C2C(=O)Nc3ccccc32)c(OC)c1 [IC-261, 1,3-Dihydro-3-[(2,4,6-trimethoxyphenyl)methylene]-2H-indol-2-one] | increased the steady-state abundance of Atoh1 | – | – | – | – | – | – | – | – | – | –
2 | Cl.Cl.Nc1nccc(-c2c(-c3ccc(F)cc3)ncn2C2CCCCC2)n1 [PF-670462, 4-[3-Cyclohexyl-5-(4-fluoro-phenyl)−3H-imidazol-4-yl]-pyrimidin-2-ylamine dihydrochloride] | increased the steady-state abundance of Atoh1 | diminished Atoh1-Huwe1 binding | diminished | – | – | – | – | – | – | – | –
3 | NC(=O)c1ccc(-c2nc(-c3ccc4c(c3)OCCO4)c(-c3ccccn3)[nH]2)cc1 [D4476, 4-[4-(2,3-Dihydro-1,4-benzodioxin-6-yl)-5-(2-pyridinyl)-1H-imidazol-2-yl]benzamide] | increased the steady-state abundance of Atoh1 | diminished Atoh1-Huwe1 binding | diminished | increases Atoh1-specific E-box activity; also recorded: increased | caused stabilization of Atoh1 protein | found both in the inner hair cell and outer hair cell area | significantly increased; also recorded: significantly more | significantly increased; also recorded: significantly more | increase hair cell generation | resulted in an increase of Sox2-lineage-tagged hair cells; also recorded: indicated transdifferentiation of supporting cells | promote hair cell regeneration
